Test results as given in the supplement of paper PMC11061612.

How the values were obtained:
AZD7648 = compound: Cc1cc2ncnn2cc1Nc1ncc2c(n1)n(C1CCOCC1)c(=O)n2C [AZD7648]; details: max 10 µM
Procedure, shortened: (§1)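 Cancer cell lines were seeded in 1536-well plates in 7.5 μl DMEM/F12 or RPMI with 10% FBS, held 24 hours at 37°C and 5% CO2, then dosed for 72 hours (final DMSO typically 0.2%). Viability was read by CellTiter-Glo 2.0 luminescence and scaled between blank-well and DMSO-well means. The single-agent IC50 comes from dose responses fitted to a two-parameter logistic curve with a non-linear mixed effects model.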

AZD5363 = compound: C1CN(CCC1(C(=O)N[C@@H](CCO)C2=CC=C(C=C2)Cl)N)C3=NC=NC4=C3C=CN4 [AZD5363]; details: max 10 µM
Procedure, shortened: as §1

AZD2811 = compound: CCN(CCO)CCCOc1ccc2c(Nc3cc(CC(=O)Nc4cccc(F)c4)[nH]n3)ncnc2c1 [AZD2811]; details: max 1 µM
Procedure, shortened: as §1

AZD8186 = compound: C[C@@H](Nc1cc(F)cc(F)c1)c1cc(C(=O)N(C)C)cc2c(=O)cc(N3CCOCC3)oc12 [AZD8186]; details: max 10 µM
Procedure, shortened: as §1

SRA737 = compound: N#Cc1cnc(Nc2cc(NC[C@H]3CNCCO3)c(C(F)(F)F)cn2)cn1 [SRA737]; details: max 10 µM
Procedure, shortened: as §1

AZD0156 = compound: CN(C)CCCOc1ccc(-c2ccc3ncc4c(c3c2)n(C2CCOCC2)c(=O)n4C)cn1 [AZD0156]; details: max 3 µM
Procedure, shortened: as §1

AZD5153 = compound: COc1nnc2ccc(N3CCC(c4ccc(OCCN5CCN(C)C(=O)[C@H]5C)cc4)CC3)nn12 [AZD5153]; details: max 1 µM
Procedure, shortened: as §1

AZD4320 = compound: CN(CC[C@H](CSC1=CC=CC=C1)NC2=C(C=C(C=C2)S(=O)(=O)NC(=O)C3=CC=C(C=C3)N4CCC(CC4)[C@H](C5=CC=CC=C5C6=CC=C(C=C6)Cl)O)S(=O)(=O)C(F)(F)F)CCO [AZD4320]; details: max 1 µM
Procedure, shortened: as §1

Etoposide = compound: COc1cc([C@@H]2c3cc4c(cc3[C@@H](O[C@@H]3O[C@@H]5CO[C@@H](C)O[C@H]5[C@H](O)[C@H]3O)[C@H]3COC(=O)[C@H]23)OCO4)cc(OC)c1O [Etoposide]; details: max 10 µM
Procedure, shortened: as §1

Gefitinib = compound: COc1cc2ncnc(Nc3ccc(F)c(Cl)c3)c2cc1OCCCN1CCOCC1 [Gefitinib]; details: max 10 µM
Procedure, shortened: as §1

5-Fluorouracil = compound: O=c1[nH]cc(F)c(=O)[nH]1 [5-Fluorouracil]; details: max 20 µM
Procedure, shortened: as §1

Prexasertib = compound: COc1cccc(OCCCN)c1-c1cc(Nc2cnc(C#N)cn2)n[nH]1 [Prexasertib]; details: max 1 µM
Procedure, shortened: as §1

Olaparib = compound: O=C(c1cc(Cc2n[nH]c(=O)c3ccccc23)ccc1F)N1CCN(C(=O)C2CC2)CC1 [Olaparib]; details: max 10 µM
Procedure, shortened: as §1

SN-38 = compound: CCc1c2c(nc3ccc(O)cc13)-c1cc3c(c(=O)n1C2)COC(=O)[C@]3(O)CC [SN-38]; details: max 0.3 µM
Procedure, shortened: as §1

Trametinib = compound: CC(=O)Nc1cccc(-n2c(=O)n(C3CC3)c(=O)c3c(Nc4ccc(I)cc4F)n(C)c(=O)c(C)c32)c1 [Trametinib]; details: max 1 µM
Procedure, shortened: as §1

Gemcitabine = compound: Nc1ccn([C@@H]2O[C@H](CO)[C@@H](O)C2(F)F)c(=O)n1 [Gemcitabine]; details: max 0.3 µM
Procedure, shortened: as §1

Taselisib = compound: Cc1nc(-c2cn3c(n2)-c2ccc(-c4cnn(C(C)(C)C(N)=O)c4)cc2OCC3)n(C(C)C)n1 [Taselisib]; details: max 10 µM
Procedure, shortened: as §1

Savolitinib = compound: C[C@@H](c1ccc2nccn2c1)n1nnc2ncc(-c3cnn(C)c3)nc21 [Savolitinib]; details: max 1 µM
Procedure, shortened: as §1

AZD5991 = compound: Cc1c2c(nn1C)CSCc1cc(n(C)n1)CSc1cc(c3ccccc3c1)OCCCc1c(C(=O)O)n(C)c3c-2c(Cl)ccc13 [AZD5991]; details: max 1 µM
Procedure, shortened: as §1

Lapatinib = compound: CS(=O)(=O)CCNCc1ccc(-c2ccc3ncnc(Nc4ccc(OCc5cccc(F)c5)c(Cl)c4)c3c2)o1 [Lapatinib]; details: max 10 µM
Procedure, shortened: as §1

Palbociclib = compound: CC(=O)c1c(C)c2cnc(Nc3ccc(N4CCNCC4)cn3)nc2n(C2CCCC2)c1=O [Palbociclib]; details: max 10 µM
Procedure, shortened: as §1

MK-2206 = compound: NC1(c2ccc(-c3nc4ccn5c(=O)[nH]nc5c4cc3-c3ccccc3)cc2)CCC1 [MK-2206]; details: max 10 µM
Procedure, shortened: as §1

Paclitaxel = compound: CC(=O)O[C@H]1C(=O)[C@@]2(C)[C@H]([C@H](OC(=O)c3ccccc3)[C@]3(O)C[C@H](OC(=O)[C@H](O)[C@@H](NC(=O)c4ccccc4)c4ccccc4)C(C)=C1C3(C)C)[C@]1(OC(C)=O)CO[C@@H]1C[C@@H]2O [Paclitaxel]; details: max 3 µM
Procedure, shortened: as §1

AZD6738 = compound: C[C@@H]1COCCN1C2=NC(=NC(=C2)C3(CC3)[S@](=N)(=O)C)C4=C5C=CNC5=NC=C4 [AZD6738]; details: max 10 µM
Procedure, shortened: as §1

Dasatinib = compound: CC1=C(C(=CC=C1)Cl)NC(=O)C2=CN=C(S2)NC3=CC(=NC(=N3)C)N4CCN(CC4)CCO [Dasatinib]; details: max 2 µM
Procedure, shortened: as §1

Venetoclax = compound: CC1(C)CCC(CN2CCN(c3ccc(C(=O)NS(=O)(=O)c4ccc(NCC5CCOCC5)c([N+](=O)[O-])c4)c(Oc4cnc5[nH]ccc5c4)c3)CC2)=C(c2ccc(Cl)cc2)C1 [Venetoclax]; details: max 1 µM
Procedure, shortened: as §1

[1] = compound: O=C(Nc1ccc2[nH]nc(-c3ccncc3)c2c1)[C@@H]1CCN(CC(=O)N2CCN(c3ccc(-c4ncccn4)cc3)CC2)C1; details: max 5 µM
Procedure, shortened: as §1

Doxorubicin = compound: COc1cccc2c1C(=O)c1c(O)c3c(c(O)c1C2=O)C[C@@](O)(C(=O)CO)C[C@@H]3O[C@H]1C[C@H](N)[C@H](O)[C@H](C)O1 [Doxorubicin]; details: max 1 µM
Procedure, shortened: as §1

Crizotinib = compound: C[C@@H](Oc1cc(-c2cnn(C3CCNCC3)c2)cnc1N)c1c(Cl)ccc(F)c1Cl [Crizotinib]; details: max 10 µM
Procedure, shortened: as §1

AZD1390 = compound: CC(C)n1c(=O)n(C)c2cnc3cc(F)c(-c4ccc(OCCCN5CCCCC5)nc4)cc3c21 [AZD1390]; details: max 0.3 µM
Procedure, shortened: as §1

AZD1775 = compound: C=CCn1c(=O)c2cnc(Nc3ccc(N4CCN(C)CC4)cc3)nc2n1-c1cccc(C(C)(C)O)n1 [AZD1775]; details: max 3 µM
Procedure, shortened: as §1

Selumetinib = compound: Cn1cnc2c(F)c(Nc3ccc(Br)cc3Cl)c(C(=O)NOCCO)cc21 [Selumetinib]; details: max 10 µM
Procedure, shortened: as §1

SG3199 = compound: CC1=CN2[C@@H](C1)C=NC3=CC(=C(C=C3C2=O)OC)OCCCCCOC4=C(C=C5C(=C4)N=C[C@@H]6CC(=CN6C5=O)C)OC [SG3199]; details: max 0.001 µM
Procedure, shortened: as §1

Carboplatin = compound: C1CC(C1)(C(=O)[O-])C(=O)[O-].N.N.[Pt+2] [Carboplatin]; details: max 10 µM
Procedure, shortened: as §1

Alisertib = compound: COc1cc(Nc2ncc3c(n2)-c2ccc(Cl)cc2C(c2c(F)cccc2OC)=NC3)ccc1C(=O)O [Alisertib]; details: max 10 µM
Procedure, shortened: as §1

| Cell Line | IC50, cell viability 72 h (AZD7648) [nM] | IC50, cell viability 72 h (AZD5363) [nM] | IC50, cell viability 72 h (AZD2811) [nM] | IC50, cell viability 72 h (AZD8186) [nM] | IC50, cell viability 72 h (SRA737) [nM] | IC50, cell viability 72 h (AZD0156) [nM] | IC50, cell viability 72 h (AZD5153) [nM] | IC50, cell viability 72 h (AZD4320) [nM] | IC50, cell viability 72 h (Etoposide) [nM] | IC50, cell viability 72 h (Gefitinib) [nM] | IC50, cell viability 72 h (5-Fluorouracil) [nM] | IC50, cell viability 72 h (Prexasertib) [nM] | IC50, cell viability 72 h (Olaparib) [nM] | IC50, cell viability 72 h (SN-38) [nM] | IC50, cell viability 72 h (Trametinib) [nM] | IC50, cell viability 72 h (Gemcitabine) [nM] | IC50, cell viability 72 h (Taselisib) [nM] | IC50, cell viability 72 h (Savolitinib) [nM] | IC50, cell viability 72 h (AZD5991) [nM] | IC50, cell viability 72 h (Lapatinib) [nM] | IC50, cell viability 72 h (Palbociclib) [nM] | IC50, cell viability 72 h (MK-2206) [nM] | IC50, cell viability 72 h (Paclitaxel) [nM] | IC50, cell viability 72 h (AZD6738) [nM] | IC50, cell viability 72 h (Dasatinib) [nM] | IC50, cell viability 72 h (Venetoclax) [nM] | IC50, cell viability 72 h [1] [nM] | IC50, cell viability 72 h (Doxorubicin) [nM] | IC50, cell viability 72 h (Crizotinib) [nM] | IC50, cell viability 72 h (AZD1390) [nM] | IC50, cell viability 72 h (AZD1775) [nM] | IC50, cell viability 72 h (Selumetinib) [nM] | IC50, cell viability 72 h (SG3199) [nM] | IC50, cell viability 72 h (Carboplatin) [nM] | IC50, cell viability 72 h (Alisertib) [nM] |
| --- | --- | --- | --- | --- | --- | --- | --- | --- | --- | --- | --- | --- | --- | --- | --- | --- | --- | --- | --- | --- | --- | --- | --- | --- | --- | --- | --- | --- | --- | --- | --- | --- | --- | --- | --- |
| K5 (Thyroid Gland Carcinoma) | > 10000 | > 10000 | > 1000 | > 10000 | > 10000 | > 3000 | 243 | > 1000 | > 10000 | > 10000 | > 20000 | 251 | > 10000 | 150 | 14.3 | > 300 | 558 | > 1000 | > 1000 | > 10000 | > 10000 | > 10000 | 56.1 | > 10000 | 604 | > 1000 | 3880 | 266 | 9780 | > 300 | > 3000 | 2190 | > 1 | > 10000 | 638 |
| LU-139 (Small Cell Lung Carcinoma) | > 10000 | > 10000 | > 1000 | > 10000 | > 10000 | > 3000 | 103 | 47.4 | 2430 | > 10000 | > 20000 | 413 | > 10000 | 39.2 | > 1000 | 29.5 | > 10000 | > 1000 | > 1000 | > 10000 | > 10000 | > 10000 | 124 | > 10000 | > 2000 | > 1000 | > 5000 | 513 | 9530 | > 300 | 1210 | > 10000 | > 1 | > 10000 | 5740 |
| LoVo (Colorectal Carcinoma) | > 10000 | 7270 | > 1000 | 952 | 8630 | > 3000 | > 1000 | > 1000 | > 10000 | > 10000 | > 20000 | 24.4 | > 10000 | 108 | 156 | 138 | 5550 | > 1000 | > 1000 | > 10000 | 7650 | 5230 | 70.3 | 1170 | > 2000 | > 1000 | 1680 | > 1000 | > 10000 | > 300 | 192 | 5810 | > 1 | > 10000 | > 10000 |
| Mewo (Melanoma) | > 10000 | > 10000 | > 1000 | > 10000 | > 10000 | > 3000 | > 1000 | > 1000 | > 10000 | > 10000 | > 20000 | 413 | > 10000 | > 300 | 569 | > 300 | > 10000 | > 1000 | > 1000 | > 10000 | > 10000 | > 10000 | 653 | > 10000 | > 2000 | > 1000 | 3570 | > 1000 | > 10000 | > 300 | 1420 | > 10000 | > 1 | > 10000 | > 10000 |
| NB14 (Neuroblastoma) | > 10000 | > 10000 | 24.9 | > 10000 | 677 | > 3000 | 451 | 126 | 849 | > 10000 | > 20000 | 4.03 | > 10000 | 5.04 | 570 | 128 | > 10000 | > 1000 | 566 | > 10000 | 2360 | 9150 | < 3 | 1350 | > 2000 | 726 | > 5000 | 174 | 1280 | > 300 | 293 | > 10000 | > 1 | > 10000 | 25.1 |
